Test results from the NIST ThermoML archive (doi:10.1021/je100788g).

Experiments:
[1] = Vibrating tube method
[2] = refractive index (Na D-line) (dimensionless); conditions: 298.15 K; 101.33 kPa; Liquid; Standard Abbe refractometry
[3] = xn = mol fraction of the nth substance listed; conditions: 313.15 K, Fluid (supercritical or subcritical phases), Vibrating tube method

CCCCO [butan-1-ol]
[1], Liquid
Conditions | mass density [kg/m3]
298.15 K, 101.33 kPa | 805.8
313.15 K, 1000 kPa | 794.9
313.15 K, 2000 kPa | 795.6
313.15 K, 3000 kPa | 796.3
313.15 K, 4000 kPa | 797
313.15 K, 5000 kPa | 797.6
313.15 K, 6000 kPa | 798.3
313.15 K, 7000 kPa | 798.9
313.15 K, 8000 kPa | 799.6
313.15 K, 9000 kPa | 800.2
313.15 K, 10000 kPa | 800.9

Conditions | refractive index
[2] | 1.3973

CCCCO [butan-1-ol] + O=C=O
[3]
Conditions | mass density [kg/m3]
1000 kPa, x2 = 0 | 794.9
2000 kPa, x2 = 0 | 795.6
2000 kPa, x2 = 0.103 | 802.2
3000 kPa, x2 = 0 | 796.3
3000 kPa, x2 = 0.103 | 803
4000 kPa, x2 = 0 | 797
4000 kPa, x2 = 0.103 | 803.8
4000 kPa, x2 = 0.204 | 810.6
5000 kPa, x2 = 0 | 797.6
5000 kPa, x2 = 0.103 | 804.6
5000 kPa, x2 = 0.204 | 811.6
5000 kPa, x2 = 0.3 | 817
6000 kPa, x2 = 0 | 798.3
6000 kPa, x2 = 0.103 | 805.4
6000 kPa, x2 = 0.204 | 812.4
6000 kPa, x2 = 0.3 | 818.1
7000 kPa, x2 = 0 | 798.9
7000 kPa, x2 = 0.103 | 806.2
7000 kPa, x2 = 0.204 | 813.4
7000 kPa, x2 = 0.3 | 819.1
7000 kPa, x2 = 0.404 | 825.1
7000 kPa, x2 = 0.503 | 829.1
8000 kPa, x2 = 0 | 799.6
8000 kPa, x2 = 0.103 | 806.9
8000 kPa, x2 = 0.204 | 814.3
8000 kPa, x2 = 0.3 | 820.2
8000 kPa, x2 = 0.404 | 826.5
8000 kPa, x2 = 0.503 | 830.9
8000 kPa, x2 = 0.6 | 830.9
8000 kPa, x2 = 0.703 | 824.9
9000 kPa, x2 = 0 | 800.2
9000 kPa, x2 = 0.103 | 807.7
9000 kPa, x2 = 0.204 | 815.2
9000 kPa, x2 = 0.3 | 821.2
9000 kPa, x2 = 0.404 | 827.8
9000 kPa, x2 = 0.503 | 832.6
9000 kPa, x2 = 0.6 | 833.4
9000 kPa, x2 = 0.703 | 829.1
9000 kPa, x2 = 0.802 | 810.5
9000 kPa, x2 = 0.9 | 762.6
9000 kPa, x2 = 0.95 | 704.5
10000 kPa, x2 = 0 | 800.9
10000 kPa, x2 = 0.103 | 808.4
10000 kPa, x2 = 0.204 | 816.1
10000 kPa, x2 = 0.3 | 822.3
10000 kPa, x2 = 0.404 | 829.1
10000 kPa, x2 = 0.503 | 834.3
10000 kPa, x2 = 0.6 | 835.8
10000 kPa, x2 = 0.703 | 833.1
10000 kPa, x2 = 0.802 | 817.8
10000 kPa, x2 = 0.9 | 779.1
10000 kPa, x2 = 0.95 | 735.5

O=C=O [carbon dioxide] + CCCCO
[3], x1 = 1
Conditions | mass density [kg/m3]
1000 kPa | 17.9
2000 kPa | 37.1
3000 kPa | 58.7
4000 kPa | 83.5
5000 kPa | 112.7
6000 kPa | 148.8
7000 kPa | 197.3
8000 kPa | 276.7
9000 kPa | 483.4
10000 kPa | 627.4

O=C=O [carbon dioxide]
[1], 313.15 K, Fluid (supercritical or subcritical phases)
Conditions | mass density [kg/m3]
1000 kPa | 17.9
2000 kPa | 37.1
3000 kPa | 58.7
4000 kPa | 83.5
5000 kPa | 112.7
6000 kPa | 148.8
7000 kPa | 197.3
8000 kPa | 276.7
9000 kPa | 483.4
10000 kPa | 627.4
